Results on one compound are retold here after patent US7053095B2, “Triazole compounds as transforming growth factor (TGF) inhibitors” (Pfizer Inc., priority 2002, dated 2006).

The target of the test is T1, TβRI (ALK-5) (Homo sapiens, UniProt P36897).
T1 construct: with same assay conditions using either the kinase domain of ALK5 with Smad3 as substrate; GST
T1 sequence (P36897 205-495 limits assumed): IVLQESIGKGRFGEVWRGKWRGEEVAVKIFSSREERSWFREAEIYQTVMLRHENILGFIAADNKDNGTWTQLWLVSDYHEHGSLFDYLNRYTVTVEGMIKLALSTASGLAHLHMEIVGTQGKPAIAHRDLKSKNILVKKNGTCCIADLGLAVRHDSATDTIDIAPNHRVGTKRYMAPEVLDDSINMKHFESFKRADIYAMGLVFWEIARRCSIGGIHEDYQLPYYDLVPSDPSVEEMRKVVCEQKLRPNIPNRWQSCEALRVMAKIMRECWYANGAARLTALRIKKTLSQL
Description: ALK-5 (TβRI) kinase assay. It counts as biochemical. On the procedure: ALK-5 (TβRI) Kinase Assay Protocol
The kinase assays were performed with 65 nM GST-ALK5 and 84 nM GST-Smad3 in 50 mM HEPES, 5 mM MgCl2, 1 mM CaCl2, 1 mM dithiothreitol, and 3_M ATP. Reactions were incubated with 0.5_Ci of [33 P]_ATP for 3 h at 30° C. Phosphorylated protein was captured on P-81 paper (Whatman, Maidstone, England), washed with 0.5% phosphoric acid, and counted by liquid scintillation. Alternatively, Smad3 or Smad1 protein was also coated onto FlashPlate Sterile Basic Microplates (PerkinElmer Life Sciences, Boston, Mass.). Kinase assays were then performed in Flash-Plates with same assay conditions using either the kinase domain of ALK5 with Smad3 as substrate or the kinase domain of ALK6 (BMP receptor) with Smad1 as substrate. Plates were washed three times with phosphate buffer and counted by TopCount (Packard Bio-science, Meriden, Conn.). (Laping, N.J. et al. Molecular Pharmacology 62:58–64 (2002)).

For orientation: IC50 means the concentration that inhibits the measured activity by half. Read a low IC50 as greater potency. `Cc1cccc(-c2n[nH]nc2-c2ccc3nnc(C)n3c2)n1` [Example 2, 3-Methyl-6-[5-(6-methyl-pyridin-2-yl)-2H-[1,2,3]triazol-4-yl]-[1,2,4]triazolo[4,3-a]pyridine] came in with an IC50 of about 58 nM.
